pIC50: −log10 of the molar value. The source made the active and inactive calls. The rule behind the calls is not given here.
Assays:
[1] = molecular target: T1, Receptor-interacting serine/threonine-protein kinase 2 (Homo sapiens, UniProt O43353); experiment: Inhibition of N-terminal polyHis-tagged human RIPK2 (8 to 310 residues) expressed in Sf9 cells using MBP as substrate preincubated for 15 mins followed by ATP addition measured after 90 mins by ADP-Glo assay
[2] = molecular target: T2, Receptor-interacting serine/threonine-protein kinase 3 (Homo sapiens, UniProt Q9Y572); experiment: Inhibition of N-terminal polyHis-tagged human RIPK3 (1 to 307 residues) expressed in Sf9 cells using MBP as substrate upto 10 uM preincubated for 15 mins followed by ATP addition measured after 90 mins by ADP-Glo assay; settings: time 105.0 min
Target sequence in this assay (Q9Y572 whole entry, looked up, the tested form may be a part): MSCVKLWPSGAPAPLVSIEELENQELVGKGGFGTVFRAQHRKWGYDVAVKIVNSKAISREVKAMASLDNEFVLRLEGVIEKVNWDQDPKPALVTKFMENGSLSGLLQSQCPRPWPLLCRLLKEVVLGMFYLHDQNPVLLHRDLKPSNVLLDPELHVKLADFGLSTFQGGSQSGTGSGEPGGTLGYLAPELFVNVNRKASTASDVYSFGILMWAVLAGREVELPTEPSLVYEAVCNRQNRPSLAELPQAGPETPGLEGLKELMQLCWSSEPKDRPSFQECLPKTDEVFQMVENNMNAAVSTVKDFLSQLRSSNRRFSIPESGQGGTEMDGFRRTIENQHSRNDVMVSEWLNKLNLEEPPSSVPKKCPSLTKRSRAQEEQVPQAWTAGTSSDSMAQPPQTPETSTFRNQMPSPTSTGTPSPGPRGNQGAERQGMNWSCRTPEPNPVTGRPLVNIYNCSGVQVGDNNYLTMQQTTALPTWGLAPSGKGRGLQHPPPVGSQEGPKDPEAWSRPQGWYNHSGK

[3] = molecular target: T1, Receptor-interacting serine/threonine-protein kinase 2; experiment: Inhibition of RIPK2-mediated NF-kappaB signalling in MDP-treated human THP-1 cells upto 10 uM preincubated for 30 mins followed by MDP addition measured after 24 hrs by luminescence based assay; format: cell-based
[4] = molecular target: T3, Receptor-interacting serine/threonine-protein kinase 1 (Homo sapiens, UniProt Q13546); experiment: Inhibition of N-terminal polyHis-tagged human RIPK1 (1 to 321 residues) expressed in Sf9 cells using MBP as substrate preincubated for 15 mins followed by ATP addition measured after 90 mins by ADP-Glo assay
T3 sequence (Q13546 whole entry): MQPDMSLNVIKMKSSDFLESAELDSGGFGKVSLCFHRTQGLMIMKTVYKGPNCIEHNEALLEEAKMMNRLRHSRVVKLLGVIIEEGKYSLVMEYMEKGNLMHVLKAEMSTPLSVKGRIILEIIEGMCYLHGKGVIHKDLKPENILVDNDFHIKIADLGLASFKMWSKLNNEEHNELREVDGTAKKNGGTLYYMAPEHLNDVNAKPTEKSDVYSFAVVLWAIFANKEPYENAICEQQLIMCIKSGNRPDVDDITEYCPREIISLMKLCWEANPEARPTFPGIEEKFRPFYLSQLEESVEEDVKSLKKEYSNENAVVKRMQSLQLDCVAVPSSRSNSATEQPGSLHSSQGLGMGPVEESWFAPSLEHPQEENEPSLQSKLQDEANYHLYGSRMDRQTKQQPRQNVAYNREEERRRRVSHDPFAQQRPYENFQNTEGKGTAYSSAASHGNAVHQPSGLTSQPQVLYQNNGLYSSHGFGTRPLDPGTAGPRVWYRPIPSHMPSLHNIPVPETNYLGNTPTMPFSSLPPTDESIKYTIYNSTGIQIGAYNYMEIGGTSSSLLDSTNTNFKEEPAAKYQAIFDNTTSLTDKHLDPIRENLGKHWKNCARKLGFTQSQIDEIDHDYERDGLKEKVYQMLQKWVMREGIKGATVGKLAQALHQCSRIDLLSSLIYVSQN

[5] = molecular target: T1, Receptor-interacting serine/threonine-protein kinase 2; experiment: Inhibition of RIPK2-mediated NF-kappaB signalling in C14-TriLAN-Gly-treated human THP-1 cells upto 10 uM preincubated for 30 mins followed by C14-TriLAN-Gly addition measured after 24 hrs by luminescence based assay; format: cell-based
[6] = molecular target: T4, Receptor-interacting serine/threonine-protein kinase 4 (Homo sapiens, UniProt P57078); experiment: Inhibition of N-terminal polyHis-tagged human RIPK4 (1 to 321 residues) expressed in Sf9 cells using MBP as substrate preincubated for 15 mins followed by ATP addition measured after 90 mins by ADP-Glo assay
T4 sequence (P57078 whole entry): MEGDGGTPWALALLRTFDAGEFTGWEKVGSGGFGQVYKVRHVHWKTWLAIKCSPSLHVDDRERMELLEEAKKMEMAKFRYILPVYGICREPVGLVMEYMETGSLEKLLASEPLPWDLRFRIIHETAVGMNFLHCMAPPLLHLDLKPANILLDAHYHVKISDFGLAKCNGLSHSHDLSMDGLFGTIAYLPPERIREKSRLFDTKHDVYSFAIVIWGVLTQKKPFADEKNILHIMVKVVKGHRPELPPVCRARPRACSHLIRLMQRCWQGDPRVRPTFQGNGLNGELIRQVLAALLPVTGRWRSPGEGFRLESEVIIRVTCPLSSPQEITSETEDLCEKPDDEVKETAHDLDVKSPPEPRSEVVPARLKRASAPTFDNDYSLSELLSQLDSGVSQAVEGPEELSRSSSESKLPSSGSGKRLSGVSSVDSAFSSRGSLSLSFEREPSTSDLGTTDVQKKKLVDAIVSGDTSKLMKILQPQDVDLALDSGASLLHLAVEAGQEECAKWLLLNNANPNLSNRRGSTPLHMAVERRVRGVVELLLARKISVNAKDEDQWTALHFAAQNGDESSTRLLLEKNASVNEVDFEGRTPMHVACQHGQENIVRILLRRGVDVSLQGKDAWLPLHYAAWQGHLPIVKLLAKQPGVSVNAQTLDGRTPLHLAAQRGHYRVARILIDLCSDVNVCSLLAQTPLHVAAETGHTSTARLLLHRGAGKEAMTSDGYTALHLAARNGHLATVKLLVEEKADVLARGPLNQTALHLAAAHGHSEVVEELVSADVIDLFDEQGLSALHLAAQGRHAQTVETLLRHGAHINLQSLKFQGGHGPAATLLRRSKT

[7] = Metabolic stability in mouse liver microsomes assessed as compound remaining at 10 uM incubated for 45 mins by ECHO-MS analysis; format: ADME, Microsome; settings: read-out: Stability
[8] = molecular target: T1, Receptor-interacting serine/threonine-protein kinase 2; experiment: Inhibition of RIPK2-mediated NF-kappaB signalling in MDP-treated human THP-1 cells preincubated for 30 mins followed by MDP addition measured after 24 hrs by luminescence based assay; format: cell-based
[9] = Metabolic stability in human plasma assessed as compound remaining at 5 uM incubated for 120 mins by ECHO-MS analysis; format: ADME, cell-free; settings: for remaining at 2 h, 5 µM: read-out: Stability; for Stability: 2 h, 5 µM
[10] = molecular target: T2, Receptor-interacting serine/threonine-protein kinase 3; experiment: Inhibition of N-terminal polyHis-tagged human RIPK3 (1 to 307 residues) expressed in Sf9 cells using MBP as substrate preincubated for 15 mins followed by ATP addition measured after 90 mins by ADP-Glo assay
Target sequence in this assay (Q9Y572 whole entry, the tested form may be a part): as the sequence (Q9Y572 whole entry, looked up, the tested form may be a part) above

[11] = molecular target: T1, Receptor-interacting serine/threonine-protein kinase 2; experiment: Inhibition of RIPK2-mediated NF-kappaB signalling in C14-TriLAN-Gly-treated human THP-1 cells preincubated for 30 mins followed by C14-TriLAN-Gly addition measured after 24 hrs by luminescence based assay; format: cell-based
[12] = Metabolic stability in mouse plasma assessed as compound remaining at 5 uM incubated for 120 mins by ECHO-MS analysis; format: ADME, cell-free; settings: for remaining at 2 h, 5 µM: read-out: Stability
[13] = Metabolic stability in human liver microsomes assessed as compound remaining at 10 uM incubated for 45 mins by ECHO-MS analysis; format: ADME, Microsome; settings: for remaining at 0.75 h, 10 µM: liver microsomes, read-out: Stability
[14] = molecular target: Vascular endothelial growth factor receptor 2 (Homo sapiens) (UniProt P35968); experiment: Inhibition of human KDR relative to control; parameters: concentration or dose not given beside the values; settings: concentration not given here
HT-29 = experiment: Cytotoxicity against human HT-29 cells assessed as cell viability at 10 uM incubated for 24 hrs by Cell Titer Glo assay; format: toxicity, cell-based; settings: ht-29, 24 h
[15] = molecular target: Epidermal growth factor receptor (Homo sapiens) (UniProt P00533); experiment: Inhibition of human EGFR relative to control; settings: concentration not given here
Sequence of Epidermal growth factor receptor (Homo sapiens) (P00533 whole entry): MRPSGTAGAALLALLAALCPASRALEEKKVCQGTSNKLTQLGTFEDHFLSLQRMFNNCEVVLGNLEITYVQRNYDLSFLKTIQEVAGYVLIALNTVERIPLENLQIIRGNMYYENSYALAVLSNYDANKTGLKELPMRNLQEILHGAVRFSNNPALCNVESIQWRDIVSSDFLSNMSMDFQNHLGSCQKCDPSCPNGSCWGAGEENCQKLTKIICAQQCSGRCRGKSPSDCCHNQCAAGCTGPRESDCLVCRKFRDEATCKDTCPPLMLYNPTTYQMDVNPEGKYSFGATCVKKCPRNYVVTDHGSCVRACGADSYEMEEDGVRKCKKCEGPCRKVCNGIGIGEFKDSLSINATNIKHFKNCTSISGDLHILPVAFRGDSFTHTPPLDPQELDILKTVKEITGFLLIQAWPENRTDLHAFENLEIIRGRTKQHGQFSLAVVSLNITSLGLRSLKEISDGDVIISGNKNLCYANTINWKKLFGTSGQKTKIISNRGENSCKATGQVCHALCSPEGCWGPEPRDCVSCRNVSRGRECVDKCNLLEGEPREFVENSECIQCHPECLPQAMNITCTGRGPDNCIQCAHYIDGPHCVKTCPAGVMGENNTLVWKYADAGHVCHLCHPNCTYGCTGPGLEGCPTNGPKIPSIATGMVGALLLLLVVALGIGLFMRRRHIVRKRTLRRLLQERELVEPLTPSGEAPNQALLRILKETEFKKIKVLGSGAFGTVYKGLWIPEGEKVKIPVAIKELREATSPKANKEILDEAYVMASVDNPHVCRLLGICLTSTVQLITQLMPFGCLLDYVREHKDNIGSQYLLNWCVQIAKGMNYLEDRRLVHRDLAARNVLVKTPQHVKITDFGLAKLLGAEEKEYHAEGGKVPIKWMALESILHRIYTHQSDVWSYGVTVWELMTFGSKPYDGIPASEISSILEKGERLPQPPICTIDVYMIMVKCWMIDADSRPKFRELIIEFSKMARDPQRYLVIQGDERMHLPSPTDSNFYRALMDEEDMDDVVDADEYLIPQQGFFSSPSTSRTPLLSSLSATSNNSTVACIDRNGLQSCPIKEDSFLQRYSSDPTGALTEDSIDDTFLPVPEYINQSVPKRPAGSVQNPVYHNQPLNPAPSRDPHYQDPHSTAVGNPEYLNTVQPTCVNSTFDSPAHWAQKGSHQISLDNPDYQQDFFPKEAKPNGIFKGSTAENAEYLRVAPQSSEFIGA

T1 sequence (O43353 whole entry, the tested form may be a part): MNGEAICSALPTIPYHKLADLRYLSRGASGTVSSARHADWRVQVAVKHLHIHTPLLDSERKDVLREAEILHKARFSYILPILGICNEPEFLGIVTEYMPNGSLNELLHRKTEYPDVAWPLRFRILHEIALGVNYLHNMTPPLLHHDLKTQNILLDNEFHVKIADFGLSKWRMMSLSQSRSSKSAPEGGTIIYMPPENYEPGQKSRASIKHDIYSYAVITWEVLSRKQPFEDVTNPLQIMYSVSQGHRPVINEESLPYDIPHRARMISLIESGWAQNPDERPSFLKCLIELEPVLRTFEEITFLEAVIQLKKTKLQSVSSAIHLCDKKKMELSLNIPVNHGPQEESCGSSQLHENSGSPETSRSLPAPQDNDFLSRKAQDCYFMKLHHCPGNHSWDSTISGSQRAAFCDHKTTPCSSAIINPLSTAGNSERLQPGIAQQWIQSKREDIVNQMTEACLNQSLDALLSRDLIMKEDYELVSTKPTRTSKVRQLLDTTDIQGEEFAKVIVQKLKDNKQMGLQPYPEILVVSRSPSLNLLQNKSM
Sequence of Vascular endothelial growth factor receptor 2 (Homo sapiens) (P35968 whole entry): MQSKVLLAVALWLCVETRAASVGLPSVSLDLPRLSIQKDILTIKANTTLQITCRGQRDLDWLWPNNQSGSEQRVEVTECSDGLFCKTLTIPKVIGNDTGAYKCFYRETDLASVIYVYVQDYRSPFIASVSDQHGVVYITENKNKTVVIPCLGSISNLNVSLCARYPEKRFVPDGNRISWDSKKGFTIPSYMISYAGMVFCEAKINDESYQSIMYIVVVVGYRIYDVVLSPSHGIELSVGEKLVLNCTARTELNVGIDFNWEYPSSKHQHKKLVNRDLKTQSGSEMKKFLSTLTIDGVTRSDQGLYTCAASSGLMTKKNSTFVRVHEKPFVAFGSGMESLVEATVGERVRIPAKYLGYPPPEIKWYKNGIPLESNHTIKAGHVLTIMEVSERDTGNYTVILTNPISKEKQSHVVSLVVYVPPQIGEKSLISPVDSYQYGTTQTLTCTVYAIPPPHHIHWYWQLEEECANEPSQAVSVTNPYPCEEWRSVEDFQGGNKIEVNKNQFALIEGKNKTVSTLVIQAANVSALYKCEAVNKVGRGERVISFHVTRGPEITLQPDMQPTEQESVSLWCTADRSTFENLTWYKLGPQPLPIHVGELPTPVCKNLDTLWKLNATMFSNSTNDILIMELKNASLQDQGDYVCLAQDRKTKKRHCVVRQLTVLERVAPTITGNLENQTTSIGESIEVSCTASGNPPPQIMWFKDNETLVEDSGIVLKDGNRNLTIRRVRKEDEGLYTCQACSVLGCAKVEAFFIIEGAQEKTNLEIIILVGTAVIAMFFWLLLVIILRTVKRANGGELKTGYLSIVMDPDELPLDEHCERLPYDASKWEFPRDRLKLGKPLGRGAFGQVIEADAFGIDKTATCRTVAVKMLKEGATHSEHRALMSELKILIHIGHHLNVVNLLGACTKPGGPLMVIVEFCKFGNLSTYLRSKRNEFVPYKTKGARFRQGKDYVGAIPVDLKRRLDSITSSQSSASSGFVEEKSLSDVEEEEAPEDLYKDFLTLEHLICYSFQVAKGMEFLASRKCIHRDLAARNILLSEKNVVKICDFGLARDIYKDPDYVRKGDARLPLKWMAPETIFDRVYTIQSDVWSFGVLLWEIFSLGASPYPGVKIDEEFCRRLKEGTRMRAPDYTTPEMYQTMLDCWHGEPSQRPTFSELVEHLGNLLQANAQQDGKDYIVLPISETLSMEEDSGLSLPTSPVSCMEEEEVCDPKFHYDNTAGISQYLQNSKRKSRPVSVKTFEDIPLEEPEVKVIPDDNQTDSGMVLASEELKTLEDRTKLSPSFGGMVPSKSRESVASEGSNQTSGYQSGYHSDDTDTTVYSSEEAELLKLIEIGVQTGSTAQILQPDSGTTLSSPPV

| Compound | pIC50 [1] | inhibition [2] | IC50 [3] | pIC50 [4] | IC50 [5] | pIC50 [6] | remaining at 0.75 h, 10 µM [7] [%] | pIC50 [8] | remaining at 2 h, 5 µM [9] [%] | pIC50 [10] | pIC50 [11] | remaining at 2 h, 5 µM [12] [%] | remaining at 0.75 h, 10 µM [13] [%] | Stability [9] [%] | Stability ([12]; 2 h, 5 µM) [%] | inhibition [14] [%] | Activity (HT-29) | Stability ([13]; microsomes, 0.75 h, 10 µM) [%] | inhibition [15] [%] |
| --- | --- | --- | --- | --- | --- | --- | --- | --- | --- | --- | --- | --- | --- | --- | --- | --- | --- | --- | --- |
| Clc1cc2ncnc(Nc3ccc4scnc4c3)c2cc1-c1cccs1 | 7.85 | inactive | Not Active | < 4.30 | Not Active | < 4.30 |  |  |  |  |  |  |  |  |  |  |  |  |  |
| C1=C(c2cc3ncnc(Nc4ccc5scnc5c4)c3cc2-c2cccs2)COC1 | 8.30 |  |  | < 4.30 |  | < 4.30 | 94 | 7.44 | 107 | 6.33 | 7.29 | 111 | 108 |  |  |  |  |  |  |
| Cc1ccsc1-c1cc2c(Nc3ccc4scnc4c3)ncnc2cc1Cl | 7.28 | inactive | Not Active | < 4.30 | Not Active | < 4.30 |  |  |  |  |  |  |  |  |  |  |  |  |  |
| Cn1cncc1-c1cc2c(Nc3ccc4scnc4c3)ncnc2cc1Cl | 8.15 | inactive |  | < 4.30 |  | < 4.30 | 105 | 7.27 |  |  | 6.84 | 102 | 94 | 122 |  |  |  |  |  |
| Cc1csc(-c2cc3c(Nc4ccc5scnc5c4)ncnc3cc2Cl)n1 |  | inactive | Not Active | < 4.30 | Not Active | < 4.30 |  |  |  |  |  |  |  |  |  |  |  |  |  |
| Cn1ccnc1-c1cc2c(Nc3ccc4scnc4c3)ncnc2cc1Cl | 8.52 | inactive |  | < 4.30 |  | < 4.30 | 115 | 7.24 |  |  | 6.74 |  | 105 | 141 | 135 |  |  |  |  |
| Cc1nc(-c2ccc3ncnc(Nc4ccc5scnc5c4)c3c2)sc1C | 7.85 | inactive | Not Active | < 4.30 | Not Active | < 4.30 |  |  |  |  |  |  |  |  |  |  |  |  |  |
| Cc1ccsc1-c1cc2c(Nc3ccc4scnc4c3)ncnc2cc1-c1cccc(CO)c1 | 8.40 |  |  | < 4.30 |  | < 4.30 | 118 | 6.64 | 113 | 6.91 | 6.65 | 108 |  |  |  | 85 | Toxic | 123 |  |
| Cc1nc(-c2cc3c(Nc4ccc5scnc5c4)ncnc3cc2Cl)sc1C |  | inactive | Not Active | < 4.30 | Not Active | < 4.30 |  |  |  |  |  |  |  |  |  |  |  |  |  |
| CC(C)[N+](C)(CCOC(=O)C1c2ccccc2Oc2ccccc21)C(C)C [PROPANTHELINE] |  |  |  |  |  |  |  |  | 2 |  |  | 11 |  |  |  |  |  |  |  |
| Cn1cccc1-c1cc2c(Nc3ccc4scnc4c3)ncnc2cc1Cl | 8.10 | inactive | Not Active | < 4.30 | Not Active | < 4.30 |  |  |  |  |  |  |  |  |  |  |  |  |  |
| COc1cccc(-c2ccc3ncnc(Nc4ccc5scnc5c4)c3c2)n1 | 7.31 | inactive | Not Active | < 4.30 | Not Active | < 4.30 |  |  |  |  |  |  |  |  |  |  |  |  |  |
| COc1cccc(-c2cc3c(Nc4ccc5scnc5c4)ncnc3cc2Cl)n1 | 5.41 | inactive | Not Active | < 4.30 | Not Active | < 4.30 |  |  |  |  |  |  |  |  |  |  |  |  |  |
| Clc1cc2ncnc(Nc3ccc4scnc4c3)c2cc1-c1ccccc1 |  | inactive | Not Active | < 4.30 | Not Active | < 4.30 |  |  |  |  |  |  |  |  |  |  |  |  |  |
| Cn1cncc1-c1ccc2ncnc(Nc3ccc4scnc4c3)c2c1 | 8.40 | inactive |  | < 4.30 |  | < 4.30 | 118 | 6.94 |  |  | 6.92 | 79 | 108 | 121 |  | 66 |  |  | 68 |
